Results on 1 compound are retold here after patent US20250255293A1, “TISSUE DECONTAMINATION AND PRESERVATION SYSTEM” (priority 2024, published 2025).

A value given as a limit tells only on which side of the number the result lay.

One data set deals with Staphylococcus aureus. The settings on record: 20-minute immersion in 2% chlorhexidine, grossly contaminated bone segments; cited from earlier work.
The subject of data set [1] is chondrocytes of osteoarticular fracture fragments. Nature of the data set: Viable chondrocyte density / % VCD, live-dead assay (Example 5). It counts as cell-based. Conditions: for % VCD (percentage of mean VCD of healthy day-0 samples): 20 min immersion (10% povidone-iodine or 0.002% chlorhexidine gluconate). The method, then: Skeletally mature purpose-bred research hounds (n=16) were humanely euthanized for purposes unrelated to the present study. Immediately following euthanasia, each dog was positioned in sternal recumbency with one forelimb extended and secured in a custom-made positioning apparatus. Fur was not clipped and no aseptic preparation or decontamination techniques were performed. Using a validated technique, a penetrating captive bolt stunner pistol (CASH Special, FRONTMATEC, Birmingham, United Kingdom) with a 1.25 grain cartridge was centered on the cranial (anterior) aspect of the distal humerus, immediately proximal to the elbow joint and with firm pressure against the secured elbow, the pistol was discharged, creating type 3 open distal humeral fractures. After the fractures were induced and radiographs obtained, the skin and soft tissues were aseptically removed. For each elbow (n=32), osteoarticular tissues were obtained from the distal humerus, proximal radius and proximal ulna such that 96 contaminated, devascularized, osteoarticular fracture fragments were randomly allocated to undergo treatment using one of the following protocols for comparison: 1)⋅Betadine (n=42): bulb irrigation using 1 L of 0.9% saline, followed by immersion in 10% povidone-iodine solution for 20 min, followed by bulb irrigation using 1 L of 0.9% saline; 2)⋅Chlorhexidine (n=42): bulb irrigation using 1 L of 0.9% saline, followed by immersion in 0.002% chlorhexidine gluconate solution immersion for 20 min, followed by bulb irrigation using 1 L of 0.9% saline; and 3)⋅Injured Control (n=12): no decontamination treatment. Each fragment was then immediately placed in 200 ml of Missouri Osteochondral Preservation System (MOPS®) solution in individual sterile closed containers, transported to the on-site laboratory and placed in a dedicated storage cabinet in standard room temperature and humidity conditions for 7 or 14 days.
Viable Chondrocyte Density. At days 7 (n=21) or 14 (n=21) of storage, osteoarticular tissues were collected and processed for assessment of viable chondrocyte density (VCD). VCD was assessed using a live-dead assay involving calcein AM (live stain) and ethidium homodimer (dead stain). Briefly, tissues were sagittally sectioned using a Buchler Isomet low speed saw (Lake Bluff, IL, USA) to produce representative 1 mm-thick sections from each. Sections were placed in 6-well plates containing calcein AM (1 μg/ml) solution and ethidium homodimer (1 μM) in Phosphate Buffered Saline (PBS). The plates were incubated for 30 minutes at 37° C. After incubation, the stain was removed, the samples rinsed in PBS and tissues were mounted to the bottom of the plate using a 4% agarose solution. Fluorescent microscopy was used to obtain two images per section, which were analyzed to quantify tissue viability based on VCD. The VCD was determined by counting the number of viable cells in each image and dividing this by the area of the tissue in the image (#of viable cells/area of cartilage tissue mm^2). The percentage of viable chondrocyte density (% VCD) for each fracture fragment was calculated based on the mean VCD of healthy day-0 samples using the formula: (fractured VCD/control VCD)×100.
Statistical Analysis. All data were analyzed using statistical software R Studio, version 4.3.1 (Posit Software, Boston, MA, USA). Descriptive statistics for VCD, % VCD and CFU were calculated to report means, standard deviations, ranges and percentages. […]

Another data set relates to cells in bone. Conditions: decontamination with 2% chlorhexidine gluconate; cited from earlier work.
Data set [2] concerns microbial contamination of osteoarticular fracture fragments. Nature of the data set: Quantitative microbial culture of osteoarticular fragments, colony forming units per specimen (Example 3). Conditions: for Colony Forming Units, mean (SD): 20 min immersion (10% povidone-iodine or 0.002% chlorhexidine). It counts as cell-based. From the text: Purpose-bred hounds (n=16) were humanely euthanized, immediately after which an open articular fracture in both elbows (n=32) was created using a captive bolt pistol. Each dog was positioned in sternal recumbency with one forelimb extended and secured in a custom made positioning apparatus. Fur was not clipped and no aseptic preparation or techniques were implemented. A captive bolt stunner pistol with a 4.75-inch penetrating pin and 1.25 grain cartridge was centered on the cranial (anterior) aspect of the distal humerus, immediately proximal to the joint. With firm pressure against the secured elbow, the pistol was discharged, and the procedure was repeated for the contralateral elbow. Soft tissues were removed aseptically and the distal humerus (n=32), proximal radius (n=32), and trochlea (n=32) were osteotomized and processed under operating room conditions in 1 of 3 ways: 1) Betadine ([…]): 0.9% saline irrigation (1 L), 10% povidone-iodine solution immersion (20 min), saline irrigation; 2) Chlorhexidine (n=42): saline irrigation, 0.002% chlorhexidine solution immersion (20 min), saline irrigation; 3) Control (n=12): untreated. Each osteoarticular fragment was placed in 200 ml of MOPS® solution (500 ml DMEM, 5 ml ITS (insulin (10 mg/L), transferrin 55 mg/L), selenium (6.7 μg/L)), 5 ml total penicillin (100 U/ml), streptomycin (100 μg/ml), amphotericin B (2.5 μg/ml), 5 ml L-glutamine (2 mM), 5 ml non-essential amino acids (0.1 mM), 1 ml ascorbic acid (50 ng/ml), and 5.46 ml dexamethasone (0.1 μM)) in a sterile container and stored under standard room temperature and humidity conditions for 7 (n=46) or 14 (n=48) days. At each time point, viable chondrocyte density (VCD) and quantitative microbial culture assessments were assayed, yielding a count of colony forming units (CFU) per specimen.
In parallel, quantitative microbial cultures were performed on the humerus, radial head, and trochlea of each dog at either 7 or 14 days. Each tissue intended for culture was placed into 18 ml thioglycollate broth and vortexed for 30 seconds. One milliliter of the broth was immediately extracted for the 1:1 dilution and placed in an Eppendorf tube. Serial 1:10 dilutions were made from that subsample and plated within an hour. The plating process comprised 10 μl of each dilution streaked semi-quantitatively onto tryptic soy agar with 5% sheep blood and reduced blood agar. All dilutions were incubated for 72 hours before counting. Additional incubation in the remaining 17 ml thioglycollate for 48 hours was performed, and 10 μl of thioglycollate was re-streaked at that time and incubated for another 72 hours. Organisms were identified via MALDI-TOF or 16S sequencing.
Univariate comparison of VCD and CFU were performed via Kruskal-Wallis and Chi-squared test. Multivariate linear regression was used, controlling for osteotomy site and storage time, to determine the correlation between processing method and VCD or CFU. Data manipulation and statistical analysis were performed using R software.

Turning to `[H]/N=C(\N/C(=N/[H])NCCCCCCNC(=N)NC(=N)Nc1ccc(Cl)cc1)Nc1ccc(Cl)cc1` [Chlorhexidine, chlorhexidine gluconate], the “removal of Staphylococcus aureus burden” value with Staphylococcus aureus is recorded as over 99%. In addition, the “maintenance of minimum essential chondrocyte viability (in words)” value in data set [1] (0.002% chlorhexidine immersion 20 min, shelf-stable storage in MOPS) was “maintaining minimum essential chondrocyte viability for up to 14 days”. Besides, the “% VCD (percentage of mean VCD of healthy day-0 samples)” value in data set [1] (Day 7 of MOPS storage) is on record as 75.7 ± 24.2%; in data set [1] (Day 14 of MOPS storage) it was 70.1 ± 24.1%. Further, the “% VCD compared with other groups (in words)” value in data set [1] (days 7 and 14) was “significantly (p<0.001) higher than for the Betadine and Injured Control groups”. Also, in data set [1] (days 7 and 14 of MOPS storage), the “mean % VCD versus minimum essential threshold” value was over 70%. Also, the “cell viability in bone” value with cells in bone is “complete loss of cell viability”. The “mean CFU” value in data set [2] (at 7 days) came out at 0.4; in data set [2] (at 14 days) it was 7.9. Also, the “decrease of CFU relative to control treatment” value in data set [2] (multivariate linear regression, controlling for osteotomy site and storage timing) is given as 15.8×10^6 CFU. In addition, in data set [2] (saline irrigation, 0.002% chlorhexidine immersion, room temperature storage in MOPS), the “decontamination of osteoarticular fracture fragments (in words)” value is listed as “effective for decontaminating osteoarticular fracture fragments”. Also, the results for the “Colony Forming Units, mean (SD)” value in data set [2] (storage time 7 days in MOPS at room temperature) and in data set [2] (storage time 14 days in MOPS at room temperature) were 0.4 (1.8) 10^6 per specimen and 7.9 (14.2) 10^6 per specimen, respectively.
